Test results from patent publication US7029878B2, “Melanin concentrating hormone receptor chimeric and fusion proteins” (Merck & Co., Inc., priority 2000, dated 2006).
Several values for one entry are separate records, joined by “and”; a condition that tells them apart may be missing. Equal values may be shown once.

How the values were obtained:
[1] = system: mMCH-1R-EGFP; experiment: cAMP flashplate assay of stable CHO cell clones; format: cell-based, mouse; conditions: human MCH, 15 minutes at 37° C., 10 μM forskolin; individual stable CHO clones; FIG. 2
Text: FIG. 2 illustrates a cAMP flashplate assay of CHO cell clones stably expressing mMCH-1R-EGFP. […] Cells were then lysed and assayed for bound [^125I]cAMP.
(§1) Wild-type CHO cells were transfected using SuperFect (Qiag.en) and either mouse MCH-1R-EGFP or human short/mouse species chimeric MCH-1R-EGFP. Forty-eight hours after transfection, transfected cells were subjected to positive selection for approximately ten days in media containing G418. Following selection, MCH-1R-EGFP expressing CHO cells were bulk sorted by Fluorescence Assisted Cell Sorting (FACS) for one or two rounds on the basis of fluorescence intensity to increase the population of cells expressing EGFP. Following bulk sorts, individual clones of varying fluorescence intensities were isolated by FACS and expanded.
The functional activity of these clones was evaluated with the cAMP Flashplate Assay (FIGS. 2 and 3).

[2] = molecular target: T1, HuLong/mMCH1R-1-EGFP (human long form/mouse species chimeric MCH1R-1-EGFP) (Homo sapiens, UniProt Q99705, A336T/R230K/V159M); experiment: cAMP production (FlashPlate), transiently transfected CHO cells stimulated with human MCH; format: cell-based; conditions: HuLong/mMCH1R-1-EGFP vs wild-type human MCH1R long form; transient CHO
T1 construct: ID; NO; 14 (human long form/mouse species chimeric MCH1R-linker-EGFP); 12 amino acid linker […]; expressed in transfected cells; host or cells: CHO (transient) and HEK293 Aequorin (transient)
Method: Both HEK293 Aequorin (National Institutes of Health) and CHO mammalian cell lines were transiently transfected with the various MCH1R/GFP variant fusion constructs, as well as the appropriate control constructs. Transfection was performed using Lipofectamine 2000 (Gibco BRL) per the manufacturer recommended protocol. […] Aequorin bioluminescence is a representative measure of intracellular Ca^2+ mobilization. cAMP production was measured with the Adenylyl Cyclase Activation FlashPlate Assay (NEN Life Science Products, Inc.).

[3] = system: mouse MCH-1R-EGFP; experiment: SPA-based Binding Assay, CHO cell membranes, [125I]Phe13Tyr19-MCH; conditions: displacement of [125I]Phe13Tyr19-MCH, stable CHO cell membranes
Text: as §1
Fluorometric Microvolume Assay Technology (FMAT) was initially employed to screen a large number of stable clones by whole cell binding with a fluorescently labeled MCH derivative (SymJz-MCH, PE Biosystems) to identify those clones with good specific binding windows.

Substance: human MCH
- EC50 [1]: 0.111 nM and 0.126 nM and 0.129 nM and 0.23 nM
- EC50 fold higher than that of corresponding wild-type control [2]: approximately 7.5 fold
- IC50 with MCH compared with wild-type human short isoform [3]: indistinguishable
